How the values were obtained:
Assay in all cases: drug sensitivity score (DSS), CellTiter-Blue viability (DSS (AUC-based score)); higher = stronger viability inhibition; extreme values may be limits of the assay
Conditions in all cases: incubation time: 72 h
MDA-MB-453 = tested on: MDA-MB-453
Method: (§1)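 DSRT with the CellTiter-Blue (resazurin reduction) viability readout, fluorescence 560/590 nm, 72 h incubation. Plates were normalised to DMSO and benzethonium chloride controls. DSS is computed from the area under the fitted dose-response curve (5 or 9 concentrations).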

MFM-223 = tested on: MFM-223
Method: as §1

MDA-MB-436 = tested on: MDA-MB-436
Method: as §1

BT-474 = tested on: BT-474
Method: as §1

CAL-51 = tested on: CAL-51
Method: as §1

HCC1937 = tested on: HCC1937
Method: as §1

CAL-85-1 = tested on: CAL-85-1
Method: as §1

DU-4475 = tested on: DU-4475
Method: as §1

BT-549 = tested on: BT-549
Method: as §1

CAL-120 = tested on: CAL-120
Method: as §1

SK-BR-3 = tested on: SK-BR-3
Method: as §1

HCC1143 = tested on: HCC1143
Method: as §1

HCC1599 = tested on: HCC1599
Method: as §1

MDA-MB-468 = tested on: MDA-MB-468
Method: as §1

HDQ-P1 = tested on: HDQ-P1
Method: as §1

MDA-MB-231 = tested on: MDA-MB-231
Method: as §1

Hs578T = tested on: Hs578T
Method: as §1

CAL-148 = tested on: CAL-148
Method: as §1

| SMILES | drug sensitivity score (MDA-MB-453) | drug sensitivity score (MFM-223) | drug sensitivity score (MDA-MB-436) | drug sensitivity score (BT-474) | drug sensitivity score (CAL-51) | drug sensitivity score (HCC1937) | drug sensitivity score (CAL-85-1) | drug sensitivity score (DU-4475) | drug sensitivity score (BT-549) | drug sensitivity score (CAL-120) | drug sensitivity score (SK-BR-3) | drug sensitivity score (HCC1143) | drug sensitivity score (HCC1599) | drug sensitivity score (MDA-MB-468) | drug sensitivity score (HDQ-P1) | drug sensitivity score (MDA-MB-231) | drug sensitivity score (Hs578T) | drug sensitivity score (CAL-148) |
| --- | --- | --- | --- | --- | --- | --- | --- | --- | --- | --- | --- | --- | --- | --- | --- | --- | --- | --- |
| CNCc1ccc(-c2[nH]c3cc(F)cc4c3c2CCNC4=O)cc1 [Rucaparib] | 2.23 | 1.28 | 0 | 0 | 1.41 | 6.08 | 0 | 0 | 0 | 0 | 0 | 0 | 0 | 0 | 0 | 2.45 | 0 | 1.96 |
| N[C@@H](CSC(c1ccccc1)(c1ccccc1)c1ccccc1)C(=O)O [S-trityl-L-cysteine] | 0 | 0 | 4.31 | 4.93 | 0 | 16.4 | 0 | 0 | 2.15 | 10.4 | 15.5 | 1.21 | 0 | 12 | 0 | 14.7 | 12.9 | 0 |
| CN(N=O)C(=O)N[C@@H](C=O)[C@@H](O)[C@H](O)[C@H](O)CO [Streptozocin] | 0 | 0 | 0 | 0 | 0 | 3.78 | 0 | 0 | 0 | 0 | 0 | 0 | 0 | 0 | 0 | 0 | 0 | 0 |
| O=C1CCC(N2C(=O)c3ccccc3C2=O)C(=O)N1 (centres undefined) [Thalidomide] | 0 | 0 | 0 | 0 | 0 | 0 | 0 | 0 | 0 | 0 | 0 | 0 | 0 | 0 | 0 | 0 | 0 | 0 |
| CN[C@@H]1C[C@H]2O[C@@](C)([C@@H]1OC)n1c3ccccc3c3c4c(c5c6ccccc6n2c5c31)C(=O)N[C@H]4O [UCN-01] | 18.2 | 14.7 | 12.4 | 12.2 | 20.4 | 20 | 17.3 | 19.5 | 22.4 | 24.2 | 23 | 22.2 | 17 | 22.4 | 19.9 | 24.5 | 29.2 | 7 |
| Clc1ccc(Nc2nnc(Cc3ccncc3)c3ccccc23)cc1 [Vatalanib] | 0 | 0 | 0 | 0 | 0 | 0 | 0 | 0 | 0 | 0 | 0 | 0 | 0 | 0 | 0 | 0 | 0 | 0 |
| CCC1=C[C@@H]2CN(C1)Cc1c([nH]c3ccccc13)[C@@](C(=O)OC)(c1cc3c(cc1OC)N(C)[C@H]1[C@@](O)(C(=O)OC)[C@H](OC(C)=O)[C@]4(CC)C=CCN5CC[C@]31[C@@H]54)C2 [Vinorelbine] | 26.1 | 18.4 | 16.5 | 16.1 | 19.6 | 25.3 | 20.9 | 15.8 | 25.6 | 24.4 | 26 | 16.8 | 9.76 | 18.2 | 16.5 | 22.8 | 24.6 | 22.5 |
| Oc1nc(-c2ccc(C(F)(F)F)cc2)nc2c1CSCC2 [XAV-939] | 0 | 0 | 0 | 0 | 0 | 0 | 0 | 0 | 0 | 0 | 0 | 7.23 | 0 | 0 | 0.887 | 2.73 | 0 | 0 |
